Assay results taken from paper PMC5196434, “Proximity does not contribute to activity enhancement in the glucose oxidase–horseradish peroxidase cascade” (Nature Communications, 2016).

Target: T1, glucose oxidase (GOx) (Aspergillus niger, UniProt P13006)
T1 construct: commercial type VII preparation (Sigma Aldrich), free enzyme
Experiment: HRP-coupled ABTS colorimetric assay, absorbance at […] nm
Assay type: biochemical
Details: co-substrate oxygen; 20 nM HRP, 2 mM ABTS; PBS pH 7.4; 23 °C; read-out: Michaelis-Menten kinetics (Km)

T1 sequence (P13006 23-605): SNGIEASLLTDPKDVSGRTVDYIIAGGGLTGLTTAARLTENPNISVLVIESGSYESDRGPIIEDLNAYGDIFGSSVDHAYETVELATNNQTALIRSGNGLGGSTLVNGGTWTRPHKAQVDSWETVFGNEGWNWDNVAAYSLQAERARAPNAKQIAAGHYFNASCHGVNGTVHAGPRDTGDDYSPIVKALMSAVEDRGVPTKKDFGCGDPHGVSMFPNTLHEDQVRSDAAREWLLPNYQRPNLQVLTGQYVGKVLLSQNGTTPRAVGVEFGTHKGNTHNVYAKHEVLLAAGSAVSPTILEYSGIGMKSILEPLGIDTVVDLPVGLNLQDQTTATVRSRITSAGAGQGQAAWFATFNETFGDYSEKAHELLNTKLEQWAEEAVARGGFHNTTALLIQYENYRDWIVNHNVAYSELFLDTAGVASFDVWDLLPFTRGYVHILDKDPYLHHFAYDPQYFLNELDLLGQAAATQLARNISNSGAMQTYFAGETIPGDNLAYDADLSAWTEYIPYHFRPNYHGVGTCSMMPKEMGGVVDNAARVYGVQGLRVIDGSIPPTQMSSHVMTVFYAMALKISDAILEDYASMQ

Substance D-glucose has a Km of 15 mM.
